This passage reports Ki results from US7491827B2, “Aryl sulfonamides useful as inhibitors of chemokine receptor activity” (Millennium Pharmaceuticals, Inc., priority 2003, dated 2009).

Where two headings read alike, the source gives them in different places.

The target in the assay is T1, cloned human CCR8 receptor stably expressed in L1.2 cells (Homo sapiens, UniProt P51685).
T1 construct: expressed in transfected cells
Kind of assay: whole cell binding screen: inhibition of biotinylated human I309 binding to CCR8 (FMAT 8100 HTS). The conditions noted are these: biotinylated human I-309, 10 point concentration response starting at 10 μM. In outline:
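Ten-point dilutions, top 10 μM final, were tested for displacing biotin-I309 from hCCR8-transfected L1.2 cells in HEPES-buffered HBSS with BSA and sodium azide, mixing 0.5 h before FMAT 8100 detection. Signals converted to percent inhibition against untreated wells and a 100 nM excess unlabeled I309 control.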

[1] abbreviates: L1.2/hCCR8 cells, read-out: Ki of compounds to inhibit I-309 binding to CCR8.
Where [2] appears, read: Ki of compounds to inhibit I-309 binding to CCR8, L1.2/hCCR8 cells.

T1 sequence (P51685 whole entry): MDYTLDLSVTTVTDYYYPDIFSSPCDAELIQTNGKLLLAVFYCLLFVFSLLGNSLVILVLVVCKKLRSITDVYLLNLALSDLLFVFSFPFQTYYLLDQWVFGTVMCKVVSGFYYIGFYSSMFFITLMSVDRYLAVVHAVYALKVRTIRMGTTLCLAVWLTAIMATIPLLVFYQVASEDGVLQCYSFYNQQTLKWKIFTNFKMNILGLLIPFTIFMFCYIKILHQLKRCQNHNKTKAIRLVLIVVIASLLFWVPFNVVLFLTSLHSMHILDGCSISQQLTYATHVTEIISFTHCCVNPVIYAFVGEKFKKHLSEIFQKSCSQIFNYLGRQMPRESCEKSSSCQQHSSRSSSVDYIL

Regarding `Cc1ccccc1C(=O)Nc1cccc2c(S(=O)(=O)Nc3ccc(Cl)cc3)cccc12` [Compound H-21, N-[5-(4-Chloro-phenylsulfamoyl)-naphthalen-1-yl]-2-methyl-benzamide], the Ki (in general, the equilibrium dissociation constant of an inhibitor or competing ligand from its target) under setting [1] is less than 1 µM.

Regarding `CCOC(=O)N1CCC(NS(=O)(=O)c2ccc(NC(=O)C3CCCCC3)c3c2CCCC3)CC1` [Compound E-6, 4-(4-(Cyclohexanecarbonyl-amino)-5,6,7,8-tetrahydro-naphthalene-1-sulfonylamino)-piperidine-1-carboxylic acid ethyl ester], under setting [1], the Ki is less than 0.5 µM. For `O=C(Nc1ccc(S(=O)(=O)NC2CCCCC2)c2c1CCCC2)c1ccccc1` [Compound E-2, N-(4-Cyclohexylsulfamoyl-5,6,7,8-tetrahydro-naphthalen-1-yl)-benzamide], the Ki under setting [1] is less than 0.5 µM. The same measure, in the same setting: in the case of `Cc1ccccc1C(=O)Nc1ccc(S(=O)(=O)N[C@@H]2CCN(Cc3ccccc3)C[C@H]2C)c2c1CCC2` (racemic) [Compound H-75, (±)-trans-N-[7-(1-Benzyl-3-methyl-piperidin-4-ylsulfamoyl)-indan-4-yl]-2-methyl-benzamide] it was less than 1 µM; in that of `Cc1cccc(NC(=O)c2cccc3c(S(=O)(=O)NC4CCN(C(=O)N(C)C)CC4)cccc23)c1C` [Compound H-38, 4-[5-(2,3-Dimethyl-phenylcarbamoyl)-naphthalene-1-sulfonylamino]-piperidine-1-carboxylic acid dimethylamide], less than 0.5 µM. The same measure, in the same setting: under `Cc1ccccc1C(=O)Nc1ccc(S(=O)(=O)NC2(C)CCN(C(=O)OC(C)C)CC2)c2ccccc12` [Compound C-26, 4-Methyl-4-[4-(2-methyl-benzoylaminno)-naphthalene-1-sulfonylamino]-piperidine-1-carboxylic acid isopropyl ester] stands less than 0.5 µM; under `CCNC(=O)N1CCC(NS(=O)(=O)c2ccc(NC(=O)c3ccccc3C)c3c2CCC3)CC1` [Compound H-69, 4-[7-(2-Methyl-benzoylamino)-indane-4-sulfonylamino]-piperidine-1-carboxylic acid ethylamide], less than 0.5 µM; under `Cc1ccccc1C(=O)Nc1ccc(S(=O)(=O)N[C@H]2CCN(C(=O)C(C)N)C[C@H]2C)c2cccnc12` (stereo in doubt) [Compound J-39, (3R, 4S)-N-{5-[1-(2-(R)-Amino-propionyl)-3-methyl-piperidin-4-ylsulfamoyl]-quinolin-8-yl}-2-methyl-benzamide], less than 0.5 µM. Still for that read-out and setting: in the case of `CC(C)(C)OC(=O)N1CCC(NS(=O)(=O)c2ccc(NC(=O)c3ccncc3)c3ccccc23)CC1` [Compound B-22, 4-{4-[(Pyridine-4-carbonyl)-amino]-naphthalene-1-sulfonylamino}-piperidine-1-carboxylic acid tert-butyl ester] it was less than 30 µM; in that of `CCOC(=O)N1CCC(NS(=O)(=O)c2ccc(C(=O)N(C)C3CCCCC3)c3ccccc23)CC1` [Compound F-27, 4-[4-(Cyclohexyl-methyl-carbamoyl)-naphthalene-1-sulfonylamino]-piperidine-1-carboxylic acid ethyl ester], less than 0.5 µM.

In the case of `CCOC(=O)N1[C@@H]2CC[C@H]1C[C@@H](NS(=O)(=O)c1ccc(NC(=O)c3ccccc3C)c3ccccc13)C2` [Compound C-10, cis-3-[4-(2-Methyl-benzoylamino)-naphthalene-1-sulfonylamino]-8-aza-bicyclo[3.2.1]octane-8-carboxylic acid ethyl ester], the Ki under setting [1] was less than 0.5 µM. The same measure, in the same setting: under `O=C(Nc1ccc(S(=O)(=O)Nc2ccc(-c3ccccc3)cc2)c2ccccc12)c1ccccc1` [Compound A-29] stands less than 30 µM; under `Cc1ccccc1C(=O)Nc1ccc(S(=O)(=O)NC2CCN(C(=O)N(C)C)CC2)c2c1CCCC2` [Compound E-10, 4-[4-(2-Methyl-benzoylamino)-5,6,7,8-tetrahydro-naphthalene-1-sulfonylamino]-piperidine-1-carboxylic acid dimethylamide], less than 0.5 µM; under `O=C(Nc1ccc(S(=O)(=O)NC2CCCCC2)c2c1CCCC2)C1CCCCC1` [Compound E-5, Cyclohexanecarboxylic acid (4-cyclohexylsuffamoyl-5,6,7,8-tetrahydro-naphthalen-1-yl)-amide], less than 0.5 µM. Same read-out and setting: under `Cc1ccccc1C(=O)Nc1ccc(S(=O)(=O)NC2CCN(C(=O)OC(C)C)CC2)c2ccccc12` [Compound C-37, 4-[4-(2-Methyl-benzoylamino)-naphthalene-1-sulfonylamino]-piperidine-1-carboxylic acid isopropyl ester] stands less than 0.5 µM; under `CCOC(=O)N1CCC(NS(=O)(=O)c2ccc(CNCc3ccccc3)c3ccccc23)CC1` [Compound G-32, 4-[4-(Benzylamino-methyl)-naphthalene-1-sulfonylamino]-piperidine-1-carboxylic acid ethyl ester], less than 0.5 µM; under `CCOC(=O)N1CC[C@H](NS(=O)(=O)c2ccc(NC(=O)c3cccnc3C)c3ccccc23)[C@H](C)C1` (racemic) [Compound D-6, (±)-(cis)-3-Methyl-4-{4-[(2-methyl-pyridine-3-carbonyl)-amino]-naphthalene-1-sulfonylamino}-piperidine-1-carboxylic acid ethyl ester], less than 0.5 µM. Compound `Cc1ccccc1C(=O)Nc1ccc(S(=O)(=O)NC2CCN(C(=O)NC(C)C)CC2)c2ccccc12` [Compound C-46, 4-[4-(2-Methyl-benzoylamino)-naphthalene-1-sulfonylamino]-piperidine-1-carboxylic acid isopropylamide] had a Ki under setting [2] of less than 0.5 µM.

For `Cc1ccccc1C(=O)Nc1ccc(S(=O)(=O)N[C@@H]2CCN(C(=O)CN3CCCCC3)C[C@@H]2C)c2ccccc12` (racemic) [Compound C-143, (±)-2-Methyl-N-{4-[cis-3-methyl-1-(2-piperidin-1-yl-aceyl)-piperidin-4-ylsulfamoyl]-naphthalen-1-yl}-benzamide], the Ki under setting [1] is less than 30 µM. As for `CCOC(=O)N1CCC(NS(=O)(=O)c2ccc(NC(=O)c3ccccc3C)c3c2CCC3)C1` (racemic) [Compound H-72, (±)-3-[7-(2-Methyl-benzoylamino)-indane-4-sulfonylamino]-pyrrolidine-1-carboxylic acid ethyl eter], under setting [1], the inhibition constant Ki was less than 0.5 µM. Same read-out and setting: in the case of `CCCC(=O)N1CCC(NS(=O)(=O)c2ccc(NC(=O)C3CCOCC3)c3ccccc23)CC1` [Compound D-20, Tetrahydro-pyran-4-carboxylic acid [4-(1-butyryl-piperidin-4-ylsulfamoyl)-naphthalen-1-yl]-amide] it was less than 0.5 µM; in that of `CCOC(=O)[C@@H]1CN(Cc2ccccc2)CC[C@@H]1NS(=O)(=O)c1ccc(NC(=O)c2ccccc2C)c2ccccc12` (racemic) [Compound A-47, (±)-(cis)-1-Benzyl-4-[4-(2-methyl-benzoylamino)-naphthalene-1-sulfonylamino]-piperidine-3-carboxylic acid ethyl ester], less than 30 µM.

Turning to `Cc1ccccc1C(=O)Nc1ccc(S(=O)(=O)N[C@H]2CCN(C(=O)[C@@H](C)N)C[C@H]2C)c2ccccc12` [Compound J-6, (3R, 4S)-N-{4-[1-(2-(R)-Amno-propionyl)-3-methyl-piperidin-4-ylsulfamoyl]-naphthalen-1-yl}-2-methyl-benzamide], the Ki under setting [1] is less than 0.5 µM.

For `CCOC(=O)N1CCC(NS(=O)(=O)c2ccc(CNC(=O)c3cccc(C)c3C)c3ccccc23)CC1` [Compound G-2, 4-{4-[(2,3-Dimethyl-benzoylamino)-methyl]-naphthalene-1-sulfonylamino}-piperidine-1-carboxylic acid ethyl ester], under setting [1], the Ki is less than 0.5 µM. Still for that read-out and setting: in the case of `O=C(NC1CCCCC1)c1ccc(S(=O)(=O)NC2CCNCC2)c2ccccc12` [Compound F-2, 4-(Piperidin-4-ylsulfamoyl)-naphthalene-1-carboxylic acid cyclohexylamide] it was less than 30 µM; in that of `CCCC(=O)N1CCC(NS(=O)(=O)c2ccc(C(=O)Nc3ccccc3)c3ccccc23)CC1` [Compound F-25, 4-(1-Butyryl-piperidin-4-ylsulfamoyl)-naphthalene-1-carboxylic acid phenylamide], less than 0.5 µM. On to `CN[C@@H](C)C(=O)N1CCC(NS(=O)(=O)c2ccc(NC(=O)c3ccccc3C)c3ccccc23)CC1` [Compound C-123, (S)-2-Methyl-N-{4-[1-(2-methylamno-propionyl)-piperidin-4-ylsulfamoyl]-naphthalen-1-yl}-benzamide], for which, under setting [2], the inhibitory constant (Ki) is less than 0.5 µM.

As for `CC(C)(C)OC(=O)N1CCC(NS(=O)(=O)c2ccc(NC(=O)C3CC3)c3ccccc23)CC1` [Compound B-17, 4-[4-(Cyclopropanecarbonyl-amino)-naphthalene-1-sulfonylamino]-piperidine-1-carboxylic acid tert-butyl ester], the Ki under setting [1] was less than 30 µM. As for `Cc1ccccc1C(=O)Nc1ccc(S(=O)(=O)NC2[C@@H](C)CN(C(=O)N(C)C)C[C@@H]2C)c2ccccc12` (racemic) [Compound C-65, (±)-(cisstrans)-3,5-Dimethyl-4-[4-(2-methyl-benzoylamino)-naphthalene-1-sulfonylainno]-piperidine-1-carboxylic acid dimethylamide], the inhibition constant Ki under setting [1] was less than 0.5 µM. Same read-out and setting: under `CCCC(=O)N1CCC(NS(=O)(=O)c2ccc(NC(=O)c3ccccc3C)c3c2CCC3)C1` (racemic) [Compound H-71, (±)-N-[7-(1-Butyryl-pyrrolidin-3-ylsulfamoyl)-indan-4-yl]-2-methyl-benzamide] stands less than 0.5 µM. In turn, `Cc1ccccc1C(=O)Nc1ccc(S(=O)(=O)NC2CCN(C(=O)CN)CC2)c2ccccc12` [Compound C-122, N-{4-[1-(2-Amino-acetyl)-piperidin-4-ylsulfamoyl]-naphthalen-1-yl}-2-methyl-benzamide] returned an inhibitory constant (Ki) under setting [2] of less than 0.5 µM. In the case of `O=C(Nc1ccc(S(=O)(=O)NC2CCNCC2)c2ccccc12)c1ccccc1F` [Compound C-99, 2-Fluoro-N-[4-(piperidin-4-ylsulfamoyl)-naphthalen-1-yl]-benzamide], the inhibitory constant (Ki) under setting [1] is less than 0.5 µM.
